Results from the supplement of paper PMC3493320.

test system: NCI-H295R; test: IC50 (antiproliferative, ATP content); conditions: 48 h
Method in brief: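 Adrenocortical carcinoma cells were plated at 1500 per well in 1536-well plates in serum-free DMEM with ITS supplement, left overnight, then given library compounds by pin transfer at 8 final concentrations spanning 0.6 nM to 46 µM and held 48 h at 37 °C, 5% CO2. ATP was measured as CellTiter-Glo luminescence after 20 min at room temperature and scaled between vehicle and positive-control wells. A four-parameter logistic model was fitted to each series. The IC50 was taken from these fits, and compounds without a concentration response were recorded as above the top dose.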

SMILES | IC50
C=CCn1c(=O)n([C@@H]2O[C@H](CO)[C@@H](O)[C@H]2O)c2nc(N)[nH]c(=O)c21 | > 46 µM
Cn1c([N+](=O)[O-])cnc1COC(N)=O | > 46 µM
CC(O)C(=O)O.CCCCCCCCCCCCCCNCCO | > 46 µM
C[C@@H](O)[C@H](N)C(=O)O | > 46 µM
CC(C)C[C@@H](N)C(=O)O | > 46 µM
O=C1C=C3[C@]([C@@]2(F)[C@@H](O)C[C@@]4(C)[C@](C[C@@]5([H])OC(C)(C)O[C@@]45[C@@](CO)=O)([H])[C@@]([H])2C[C@@H]3F)(C)C=C1 | > 46 µM
CC(=O)OCC(=O)[C@@]53/N=C(/C)O[C@@H]5C[C@H]2[C@@H]4CC\C1=C\C(=O)\C=C/[C@]1(C)[C@H]4[C@@H](O)C[C@@]23C | > 46 µM
Cl.N=C(N)NC(=N)N1CCOCC1 | > 46 µM
N=C1NCCC(C2NC(=O)/C(=C/NC(N)=O)NC(=O)C(CNC(=O)CC(N)CCCN)NC(=O)C(CO)NC(=O)C(N)CNC2=O)N1.O=S(=O)(O)O (configuration not stated) | > 46 µM
CN1c2ccccc2C(NCCCCCCC(=O)[O-])c2ccc(Cl)cc2S1(=O)=O.[Na+] (configuration not stated) | > 46 µM
O=C(O)c1cc(O)nc(O)n1 | > 46 µM
CC(=O)NCc1c(I)c(NC(C)=O)c(I)c(C(=O)O)c1I | > 46 µM
C[C@@H](CC)C(=O)O[C@H]2C[C@@H](C)\C=C3\C=C/[C@H](C)[C@H](CC[C@@H]1C[C@@H](O)CC(=O)O1)[C@@H]23 | > 46 µM
CCCc1c(OCCCCc2nnn[nH]2)ccc(C(C)=O)c1O | > 46 µM
NC(=S)N/N=C/c1cccnc1 | > 46 µM
C1CCN2C[C@@H]3C[C@@H](CN4CCCC[C@@H]34)[C@H]2C1 | > 46 µM
C[C@]43CCC(=O)\C=C4\CC[C@@H]1[C@@H]3CC[C@]2(C)[C@@](O)(CC[C@@H]12)C#C | > 46 µM
Nc1cc(c(cc1S(=O)(N)=O)S(N)(=O)=O)C(/Cl)=C(/Cl)Cl | > 46 µM
C#C[C@]1(O)CC[C@H]2[C@@H]3CCC4=C(CCC(=O)C4)[C@H]3CC[C@@]21C | > 46 µM
O[C@@H]([C@@H]1O\C(=C/[C@H](NC(N)=N)[C@H]1NC(C)=O)C(O)=O)[C@H](O)CO | > 46 µM
CCOP(=S)(OCC)Oc1cc(C)nc(C(C)C)n1 | > 46 µM
CCCCCC(C)N.CCCCCC(C)N.O=S(=O)(O)O (configuration not stated) | > 46 µM
CCCCC/C=C\C/C=C\CCCCCCCC(=O)O | > 46 µM

SMILES | IC50
CC[C@@H]1C(=O)OC[C@@H]1Cc1cncn1C | > 46 µM
CC[C@@H](CO)NC(=O)[C@@H]1C=C2c3cccc4c3c(cn4C)C[C@H]2N(C)C1 | > 46 µM
Nc1nc(/C(=C/CC(=O)O)C(=O)N[C@@H]2C(=O)N3C(C(=O)O)=CCS[C@H]23)cs1 | > 46 µM
CCN1C[C@]2(COC)[C@H](O)C[C@H](OC)[C@@]34[C@@H]5C[C@@]6(O)[C@H](OC(=O)c7ccccc7)[C@@H]5[C@@](OC(C)=O)([C@@H]([C@H](OC)[C@H]23)[C@H]14)[C@@H](O)[C@@H]6OC | > 46 µM
CC(=O)O[C@H]1C[C@@]2(C)[C@@H](C[C@@H](O)[C@H]3[C@@]4(C)CC[C@@H](O)[C@@H](C)[C@@H]4CC[C@@]32C)/C1=C(\CCC=C(C)C)C(=O)[O-].[Na+] | > 46 µM
C[C@@H]1CN(c2c(F)c(F)c3c(=O)c(C(=O)O)cn(C4CC4)c3c2F)C[C@H](C)N1 | > 46 µM
O=C1CC2(CCCC2)CC(=O)N1CCCCN1CCN(c2ncccn2)CC1 | > 46 µM
CCCCC/C=C\C/C=C\CCCCCCCC(=O)OCC | > 46 µM
CC(=O)[C@@]1(O)CC[C@H]2[C@@H]3CCC4=CC(=O)CC[C@]4(C)[C@H]3CC[C@@]21C | > 46 µM
O=C1C(O)=C(O)C(=O)C(O)=C1O | > 46 µM
CCC1(CC)C(=O)NC(=O)N(C)C1=O | > 46 µM
COc1cc2nc(N3CCN(C(=O)C4COc5ccccc5O4)CC3)nc(N)c2cc1OC.CS(=O)(=O)O (configuration not stated) | > 46 µM
C[C@H](CCCC(C)(C)O)[C@H]1CC[C@H]2[C@@H]3CC=C4C[C@@H](O)CC[C@]4(C)[C@H]3CC[C@]12C | > 46 µM
O=C1Nc2ccc(Cl)cc2C(c2ccccc2)=NC1O (configuration not stated) | > 46 µM
O=NN(CCCl)C(=O)NC1CCCCC1 | > 46 µM
C=CCSCC1Nc2cc(Cl)c(S(N)(=O)=O)cc2S(=O)(=O)N1 (configuration not stated) | > 46 µM
FC(F)(F)C(F)(F)C(F)(F)C(F)(F)C(F)(F)C(F)(F)C(F)(F)C(F)(F)Br | > 46 µM
CN(CCO)CC(O)Cn1cnc2c1c(=O)n(C)c(=O)n2C.O=C(O)c1cccnc1 (configuration not stated) | > 46 µM
COc1ccc2cc1Oc1cc3c(cc1OC)CC[N+](C)(C)[C@H]3Cc1ccc(cc1)Oc1c(OC)c(OC)cc3c1[C@@H](C2)[N+](C)(C)CC3.[I-].[I-] | > 46 µM
CN1CCN(C(=O)C2CCCCC2)CC1 | > 46 µM
CCC(=O)O[C@@H]1CC(=O)O[C@H](C)CC=CC=C[C@H](O)[C@H](C)C[C@H](CC=O)[C@H](O[C@@H]2O[C@H](C)[C@@H](O[C@H]3C[C@@](C)(O)[C@@H](OC(=O)CC)[C@H](C)O3)[C@H](N(C)C)[C@H]2O)[C@H]1OC | > 46 µM
CC(=O)O.N=C(N)NCCC[C@H](NC(=O)[C@@H]1CCCN1C(=O)[C@@H]1CSSC[C@H](N)C(=O)N[C@@H](Cc2ccc(O)cc2)C(=O)N[C@@H](Cc2ccccc2)C(=O)N[C@@H](CCC(N)=O)C(=O)N[C@@H](CC(N)=O)C(=O)N1)C(=O)NCC(N)=O | > 46 µM
NCC[C@H](O)C(=O)N[C@@H]1C[C@H](N)[C@@H](O[C@H]2O[C@H](CN)CC[C@H]2N)[C@H](O)[C@H]1O[C@H]1O[C@H](CO)[C@@H](O)[C@H](N)[C@H]1O.O=S(=O)(O)O | > 46 µM

Second part, the compound after the results:

IC50 | SMILES
> 46 µM | CS(=O)(=O)CCNCc1ccc(-c2ccc3ncnc(Nc4ccc(OCc5cccc(F)c5)c(Cl)c4)c3c2)o1
> 46 µM | O=[C@@](NC2=O)[C@](N2)3C1=C(OCC3)C=CC(F)=C1
> 46 µM | C[C@](N)(Cc1ccc(O)c(O)c1)C(=O)O.C[C@](N)(Cc1ccc(O)c(O)c1)C(=O)O.O.O.O
> 46 µM | Nc1ccc(S(=O)(=O)NCc2ccccc2)cc1
> 46 µM | Cc1ccc(S(=O)(=O)NC(=O)N[C@@H](C)Cc2ccccc2)cc1
> 46 µM | O=C(Cn1ccnc1[N+](=O)[O-])NCc1ccccc1
> 46 µM | CC(=O)Oc1ccc(C)cc1
> 46 µM | CCc1ccc(S(=O)(=O)O)cc1
> 46 µM | O=c1[nH]cc(F)c(=O)[nH]1
> 46 µM | O=c1ccc2ccccc2o1
> 46 µM | CN1CCC(OC(c2ccccc2)c2ccccc2)CC1.Cl
> 46 µM | CCC(C(=O)OCCN(CC)CC)c1ccccc1 (configuration not stated)
> 46 µM | CCOc1ccc2nc(S(N)(=O)=O)sc2c1
> 46 µM | CCN(CC)C(=O)c1ccc(O)c(OC)c1
> 46 µM | Cl.O=C(COc1ccc(Cl)cc1)N1CCN(Cc2ccc3c(c2)OCO3)CC1
> 46 µM | CCN(CC)CCNC(=O)c1cc(S(C)(=O)=O)ccc1OC.Cl
> 46 µM | COc3ccccc3N2CCN(CCCN\C1=C\C(=O)N(C)C(=O)N1C)CC2
> 46 µM | O=C1OC(OC(=O)c2cccnc2Nc2cccc(C(F)(F)F)c2)c2ccccc21 (configuration not stated)
> 46 µM | Cc1cc(C(=O)NNCc2ccccc2)no1
> 46 µM | CC[N+](C)(C)c1cccc(O)c1.[Cl-]
> 46 µM | [C@@H]1(O[C@H](CS1)N\2C(\N=C(/C=C/2)N)=O)CO
